Laboratory results from patent publication US6664224B2, “Quaternary ammonium salt and process for the preparation thereof” (priority 2000, dated 2003).

Key:
[1] = system: Staphylococcus aureus IFO 12732; assay: MIC by agar plate dilution method; format: cell-based; conditions: S. aureus, 37° C. 24 hours
Experimental: MIC value was determined by an agar plate dilution method according to the Law of Japanese Society of Chemotherapy. In some detail, a bacteria solution in stationary state which had been adjusted with a nutrient broth such that the concentration of bacterial suspension reached 10^6 cell/ml was added to agar culture media containing chemical solutions having concentrations which vary in two stages where it was then allowed to stand at a temperature of 37° C. for 24 hours for culture. The bacteria solution was then examined to see if the proliferation of bacteria occurred. Thus, MIC was determined.
The following three kinds of bacteria were used as sample bacteria:
Staphylococcus aureus IFO 12732 (S. aureus)

Erythrocyte = assay: Minimum hemolytic activity concentration against erythrocyte; format: cell-based; conditions: human erythrocyte, 37° C. 1 hour, O.D.540, 50% hemolysis
Experimental: Human blood was collected. The sample blood was then mixed with the equal amount of alsebar solution (glucose: 2.05 g; NaCl: 0.42 g; sodium citrate: 0.8 g; citric acid: 0.55 g; pH: 6.1). The mixture was then stored at a temperature of 4° C. Shortly before used for experiment, the alsebar stored blood was subjected to centrifugal separation. Thus, the supernatant liquid and the leukocyte layer on the erythrocyte were removed. To the erythrocyte was then added PBS in an amount of […] that of the erythrocyte to obtain a 50% erythrocyte. 10 μl of the 50% erythrocyte was then mixed with 990 μl of each of chemicals which had been diluted with PBS in amounts varying stepwise. The erythrocyte was acted upon by the chemical at a temperature of 37° C. for 1 hour. The mixture was then subjected to centrifugal separation. The supernatant liquid was collected for the measurement of the optical density at 540 nm (O.D.540). Separately, the foregoing procedure was followed except that no chemicals were used to prepare a 0% hemolytic control. The foregoing procedure was followed except that Milliq water was used instead of PBS to prepare a 100% hemolytic control. For the minimum hemolytic activity concentration of chemical, the minimum concentration at which the hemolytic concentration is […] was determined.

rat = assay: Oral toxicity test on rat (LD50); format: in vivo
Experimental: The quaternary ammonium salt of the invention is a compound having an extremely high safety, i.e., LD50 (rat) of not smaller than 2,000 mg/kg in oral toxicity test on rat.
The sample 4BAMP-6C thus obtained was then determined for oral toxicity (LD50: rat). The results were greater than 2,000 mg/kg.

[2] = Interaction with eye drop components (visual transparency); format: physicochemical; conditions: for Results (transparency of neutralized solution): in 1% sodium chloride solution
Experimental: Eye drop components and the preservative of the invention were dissolved in a 1% sodium chloride solution. The solution was then neutralized with a proper amount of diluted hydrochloric acid or sodium hydroxide. The neutralized solution thus obtained was then visually observed for transparency. Chondroitin sodium sulfate (hereinafter abbreviated as “SKA”), sodium hyaluronate (hereinafter abbreviated as “SHA”), sodium cromoglicate (hereinafter abbreviated as “SCA”), sodium dimethylisopropylazulenesulfonate (hereinafter abbreviated as “SDPA”), and flavin-adenine dinucleotide (hereinafter abbreviated as “FA”) were used as the eye drop components. 4BAMP-6C (Example 1) and benzalkonium chloride (Comparative Example 1) were used as test samples of preservative.

cornea = conditions: reported; eye drop; cited from earlier work

Row | Substance | MIC [1] [ppm] | Minimum hemolytic activity concentration Erythrocyte (Erythrocyte) [ppm] | oral toxicity LD50 (rat) | Results (transparency of neutralized solution) ([2]; FA 0.1%, 4BAMP-6C 0.1%) | Results (transparency of neutralized solution) ([2]; SCA 3%, 4BAMP-6C 0.1%) | Results (transparency of neutralized solution) ([2]; SDPA 0.05%, 4BAMP-6C 0.1%) | Results (transparency of neutralized solution) ([2]; SHA 0.2%, 4BAMP-6C 0.1%) | Results (transparency of neutralized solution) ([2]; SKA 3%, 4BAMP-6C 0.1%) | Results (transparency of neutralized solution) ([2]; FA 0.1%, benzalkonium chloride 0.01%) | Results (transparency of neutralized solution) ([2]; SCA 3%, benzalkonium chloride 0.01%) | Results (transparency of neutralized solution) ([2]; SDPA 0.05%, benzalkonium chloride 0.01%) | Results (transparency of neutralized solution) ([2]; SHA 0.2%, benzalkonium chloride 0.01%) | Results (transparency of neutralized solution) ([2]; SKA 3%, benzalkonium chloride 0.01%) | transparency of solutions with eye drop components ([2]; summary of Table 9) | amount incorporated at which the cornea is damaged (cornea) [%]
1 | 1,4-bis(N,N-dihexyl-N-methylammoniomethyl)phenylene dichloride [Example 4BAMP-6C] | <2 | 400 | greater than 2,000 mg/kg | Transparent | Transparent | Transparent | Transparent | Transparent |  |  |  |  |  |  | 
2 | benzalkonium chloride [reference compound] | 16 | 25 |  |  |  |  |  |  | Clouded | Clouded | Clouded | Clouded | Clouded | slightly opaque | ≥ 0.01
